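Assay format: 96-well plates, 48-hour exposure. GI50: concentration for 50% inhibition of growth.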 Calls of active or inactive are those of the source. Cut-off read from the data, not from the text of the source: active = GI50 up to about 1.1 µM and inactive = higher. Some results are limits rather than exact numbers.

Among the test systems are SK-OV-3; UO-31; A498; OVCAR-8; Hs-578T; HOP-92; SK-MEL-2; SK-MEL-28; SR; SNB-19; HCT-116; LOX IMVI; RPMI-8226; KM12; OVCAR-4; NCI-H522; UACC-62; SN12C; U-251; IGROV-1.
Experiment in all cases: DTP human tumour cell line panel, 48 h

In the case of `C[C@@H]1C(=O)C[C@H]2C(C)(C)CCC[C@]2(C)[C@@]1(O)CCc1ccoc1`, the GI50 in the assay with SK-OV-3 was > 100 µM (inactive); with UO-31, 55.1 µM (inactive); with A498 it was > 100 µM (inactive); in the assay with OVCAR-8, > 100 µM (inactive); in the assay on Hs-578T it was 89.5 µM (inactive); with HOP-92, > 100 µM (inactive). The GI50 was > 100 µM (inactive) in the assay on SK-MEL-2; > 100 µM (inactive) in the assay on SK-MEL-28; 11.5 µM (inactive) with SR; > 100 µM (inactive) in the assay on SNB-19; > 100 µM (inactive) in the assay on HCT-116; > 100 µM (inactive) with LOX IMVI. Further, the GI50 with RPMI-8226 is 84.3 µM (inactive); in the assay with KM12 it was > 100 µM (inactive); in the assay on OVCAR-4, > 100 µM (inactive); in the assay on NCI-H522, 66.4 µM (inactive); in the assay on UACC-62, > 100 µM (inactive); with SN12C it was > 100 µM (inactive). The GI50 in the assay with U-251 is > 100 µM (inactive); with IGROV-1, 57.4 µM (inactive).

`Clc1ccccc1NN(Cc1ccncc1)c1ccccc1Cl`: the GI50 in the assay with SK-OV-3 was 28.1 µM (inactive); in the assay on UO-31 it was 24.5 µM (inactive); in the assay on A498, 19.1 µM (inactive); with OVCAR-8 it was 13.8 µM (inactive); in the assay on Hs-578T, 18.2 µM (inactive); in the assay on HOP-92 it was 4.6 µM (inactive). Further, the GI50 in the assay on SK-MEL-2 is 14.4 µM (inactive); in the assay with SK-MEL-28, 20.3 µM (inactive); in the assay with SR it was 13.2 µM (inactive); in the assay on SNB-19, 17.3 µM (inactive); with HCT-116, 13 µM (inactive); with LOX IMVI, 16.7 µM (inactive). The GI50 in the assay with RPMI-8226 is 10.8 µM (inactive); with KM12, 18 µM (inactive); with OVCAR-4, 11.1 µM (inactive); in the assay on NCI-H522, 12.1 µM (inactive); in the assay on UACC-62, 13.2 µM (inactive); in the assay on SN12C, 13.6 µM (inactive). The GI50 in the assay on U-251 was 13.5 µM (inactive); with IGROV-1, 14.6 µM (inactive).

Take `CC(=O)[C@]1(O)Cc2c(O)c3c(c(O)c2[C@@H](OC2CC(N)C(O)C(C)O2)C1)C(=O)c1c(OCc2ccccc2)cccc1C3=O` (stereo not given in full): the GI50 with SK-OV-3 is 4.06 µM (inactive); in the assay on UO-31, 2.28 µM (inactive); in the assay with A498 it was 5.61 µM (inactive); in the assay on OVCAR-8 it was 1.48 µM (inactive); in the assay on Hs-578T, 0.619 µM (active); with HOP-92, 3.18 µM (inactive). In addition, the GI50 in the assay on SK-MEL-2 was 17.4 µM (inactive); with SK-MEL-28 it was 1.54 µM (inactive); in the assay on SR, 0.0933 µM (active); in the assay on SNB-19, 1.5 µM (inactive); in the assay on HCT-116 it was 0.605 µM (active); in the assay on LOX IMVI it was 0.604 µM (active). Besides, the GI50 in the assay with RPMI-8226 is 1.14 µM (inactive); with KM12 it was 1.41 µM (inactive); in the assay on OVCAR-4, 2.43 µM (inactive); in the assay with NCI-H522, 1.48 µM (inactive); in the assay with UACC-62, 1.73 µM (inactive); in the assay with SN12C, 1.37 µM (inactive). Besides, the concentration for 50% growth inhibition (GI50) with U-251 was 1.07 µM (active); in the assay on IGROV-1, 7.98 µM (inactive).

The GI50 is the concentration giving 50% growth inhibition.

These data come from ChEMBL document CHEMBL1201862, “PubChem BioAssay data set” (2004).
